Experimental data as given in article PMC10320503, “Rapid-reaction kinetics of the butyryl-CoA dehydrogenase component of the electron-bifurcating crotonyl-CoA-dependent NADH:ferredoxin oxidoreductase from Megasphaera elsdenii” (The Journal of Biological Chemistry, 2023).
Each block holds one molecule with its values, some of them ahead of it.

Legend:
[1] = target: T1, bcd (butyryl-CoA dehydrogenase) (Megasphaera elsdenii, UniProt Q06319); test: UV-visible titration and EPR of the bound flavin; type: binding; conditions: dithionite titrations at pH 6.0, 7.5 and 9.0, 25 °C; EPR at 77 K
T1 construct: isolated bcd component without EtfAB, C-terminal Strep II tag (pASG-IBA3), expressed in E. coli BL21; FAD-loaded, CoA persulfide removed by dithionite
T1 sequence (Q06319 1-383): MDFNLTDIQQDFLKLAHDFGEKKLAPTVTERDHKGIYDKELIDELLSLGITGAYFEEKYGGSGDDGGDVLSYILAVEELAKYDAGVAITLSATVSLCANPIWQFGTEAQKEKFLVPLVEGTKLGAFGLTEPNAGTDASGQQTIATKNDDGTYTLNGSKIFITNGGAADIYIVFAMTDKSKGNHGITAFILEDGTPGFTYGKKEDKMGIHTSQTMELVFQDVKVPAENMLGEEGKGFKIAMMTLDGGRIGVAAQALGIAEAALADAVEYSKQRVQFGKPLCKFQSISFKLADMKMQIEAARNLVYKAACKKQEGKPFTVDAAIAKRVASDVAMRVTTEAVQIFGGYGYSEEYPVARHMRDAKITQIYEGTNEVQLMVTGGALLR

[2] = target: T1, bcd (butyryl-CoA dehydrogenase); test: stopped-flow reduction of bcd FAD at […] nm, hyperbolic fit of kobs versus [butyryl-CoA]; type: biochemical; conditions: oxidized bcd 10 μM, 50 mM Tris-HCl, 150 mM NaCl, pH 7.5, 10 °C, anaerobic; reverse of the physiological direction; read-out: Kd (apparent)
[3] = target: T1, bcd (butyryl-CoA dehydrogenase); test: stopped-flow reoxidation of reduced bcd; charge-transfer complex absorbance; type: biochemical; conditions: dithionite-reduced bcd, 50 mM Tris-HCl, 150 mM NaCl, pH 7.5, 10 °C, anaerobic
[4] = target: T2, EtfAB, the electron-transferring flavoprotein component of the crotonyl-CoA-dependent NADH:ferredoxin … (Megasphaera elsdenii, UniProt O85692 1-338; O85691 1-270); test: stopped-flow spectrophotometry (rate of electron transfer against protein concentration); prereduced EtfAB mixed with oxidized bcd, anaerobic, monitored at 450 nm; 1:1 ratio at 2 to 70 uM, or 3 uM EtfAB with 3 to 24 uM bcd; 50 mM Tris-HCl, 150 mM NaCl, pH 7.5, 25 C; Kd limit inferred from the rate constant being independent of concentration; conditions: both partners purified
T2 construct: Electron-transferring flavoprotein alpha subunit (EtfA), Megasphaera elsdenii; Electron-transferring flavoprotein beta subunit (EtfB), Megasphaera elsdenii; prereduced with sodium dithionite before the assay; Plasmid derived from pASG-IBA3; also called prereduced EtfAB; source: E. coli BL21, purified (Strep-Tactin XT Superflow)
T2 sequence (looked up) 1: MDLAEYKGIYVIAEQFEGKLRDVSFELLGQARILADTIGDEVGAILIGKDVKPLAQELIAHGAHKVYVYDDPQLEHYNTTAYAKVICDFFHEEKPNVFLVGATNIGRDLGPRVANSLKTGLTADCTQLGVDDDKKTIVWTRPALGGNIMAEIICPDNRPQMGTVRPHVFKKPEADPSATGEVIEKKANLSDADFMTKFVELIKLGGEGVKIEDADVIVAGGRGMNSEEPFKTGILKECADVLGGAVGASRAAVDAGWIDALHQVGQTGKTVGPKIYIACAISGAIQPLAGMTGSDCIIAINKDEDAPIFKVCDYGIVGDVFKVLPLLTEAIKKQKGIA
T2 sequence (looked up) 2: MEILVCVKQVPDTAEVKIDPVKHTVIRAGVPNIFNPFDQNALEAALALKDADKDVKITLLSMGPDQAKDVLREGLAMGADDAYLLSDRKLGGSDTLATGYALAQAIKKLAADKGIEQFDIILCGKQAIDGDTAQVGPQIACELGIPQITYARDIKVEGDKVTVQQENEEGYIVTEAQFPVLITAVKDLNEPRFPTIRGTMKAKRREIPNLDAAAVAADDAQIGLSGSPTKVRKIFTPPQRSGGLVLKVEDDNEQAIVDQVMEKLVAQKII

Kd [2]: 60 µM
Molecule: CCCC(=O)SCCNC(=O)CCNC(=O)[C@H](O)C(C)(C)COP(=O)(O)OP(=O)(O)OC[C@H]1O[C@@H](n2cnc3c(N)ncnc32)[C@H](O)[C@@H]1OP(=O)(O)O [butyryl-CoA]

Kd [4]: < 2 µM
B1: butyryl-CoA dehydrogenase (bcd) component of EtfAB-bcd from Megasphaera elsdenii (enzyme)
chain: MDFNLTDIQQDFLKLAHDFGEKKLAPTVTERDHKGIYDKELIDELLSLGITGAYFEEKYGGSGDDGGDVLSYILAVEELAKYDAGVAITLSATVSLCANPIWQFGTEAQKEKFLVPLVEGTKLGAFGLTEPNAGTDASGQQTIATKNDDGTYTLNGSKIFITNGGAADIYIVFAMTDKSKGNHGITAFILEDGTPGFTYGKKEDKMGIHTSQTMELVFQDVKVPAENMLGEEGKGFKIAMMTLDGGRIGVAAQALGIAEAALADAVEYSKQRVQFGKPLCKFQSISFKLADMKMQIEAARNLVYKAACKKQEGKPFTVDAAIAKRVASDVAMRVTTEAVQIFGGYGYSEEYPVARHMRDAKITQIYEGTNEVQLMVTGGALLR
notes: Butyryl-CoA dehydrogenase, Megasphaera elsdenii, locus tag Mels_2128; oxidized form in the assay; Plasmid derived from pASG-IBA3; also called oxidized bcd; source: E. coli BL21, purified (Strep-Tactin XT Superflow)

More lines, now with the values behind:

Molecule: Cc1cc2nc3c(=O)[nH]c(=O)nc-3n(C[C@H](O)[C@H](O)[C@H](O)COP(=O)(O)OP(=O)(O)OC[C@H]3O[C@@H](n4cnc5c(N)ncnc54)[C@H](O)[C@@H]3O)c2cc1C [FAD]
UV-visible titration and EPR of the bound flavin [1]: the one-electron reduced FAD neutral semiquinone (FADH•) accumulates transiently

Molecule: C/C=C/C(=O)SCCNC(=O)CCNC(=O)[C@H](O)C(C)(C)COP(=O)(O)OP(=O)(O)OC[C@H]1O[C@@H](n2cnc3c(N)ncnc32)[C@H](O)[C@@H]1OP(=O)(O)O [crotonyl-CoA]
stopped-flow reoxidation of reduced bcd; charge-transfer complex absorbance [3]: indicating extremely rapid and tight binding of crotonyl-CoA to bcd
